The values that follow come from patent publication EP3556362A1, “STING INHIBITORS” (ECOLE POLYTECHNIQUE FEDERALE DE LAUSANNE (EPFL), priority 2018, dated 2019).

The target of experiment [1] is T1, TBK1 (Homo sapiens, UniProt Q9UHD2).
T1 sequence (Q9UHD2 1-729): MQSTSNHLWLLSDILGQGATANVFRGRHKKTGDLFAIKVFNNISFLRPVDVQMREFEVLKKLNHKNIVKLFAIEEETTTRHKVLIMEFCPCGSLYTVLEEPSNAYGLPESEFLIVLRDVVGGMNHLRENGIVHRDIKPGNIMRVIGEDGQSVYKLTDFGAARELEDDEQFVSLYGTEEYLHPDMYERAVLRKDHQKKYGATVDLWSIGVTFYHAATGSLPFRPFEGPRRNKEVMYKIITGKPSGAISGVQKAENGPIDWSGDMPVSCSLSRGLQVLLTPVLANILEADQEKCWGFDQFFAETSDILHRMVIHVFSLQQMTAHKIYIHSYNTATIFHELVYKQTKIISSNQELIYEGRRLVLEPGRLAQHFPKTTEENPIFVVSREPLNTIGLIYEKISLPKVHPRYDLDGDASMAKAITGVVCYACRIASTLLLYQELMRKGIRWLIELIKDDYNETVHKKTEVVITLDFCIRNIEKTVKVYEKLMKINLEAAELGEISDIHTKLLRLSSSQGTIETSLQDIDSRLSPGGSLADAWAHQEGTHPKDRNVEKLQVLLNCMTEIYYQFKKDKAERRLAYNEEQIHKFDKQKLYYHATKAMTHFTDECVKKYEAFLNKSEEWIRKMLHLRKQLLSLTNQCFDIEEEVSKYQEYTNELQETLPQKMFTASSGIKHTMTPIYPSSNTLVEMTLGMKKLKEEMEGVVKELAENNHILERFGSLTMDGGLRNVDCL
The experiment in a line: IFN-β luciferase reporter assay in HEK293T cells, TBK1 driven. To be noted: 0.31-2.5µM, 16 h (Figure 2). (In general: A reporter such as luciferase makes a cellular process visible.)

For experiment [2], the target named is T2, RIG-I (Homo sapiens, UniProt O95786).
T2 sequence (O95786 1-925): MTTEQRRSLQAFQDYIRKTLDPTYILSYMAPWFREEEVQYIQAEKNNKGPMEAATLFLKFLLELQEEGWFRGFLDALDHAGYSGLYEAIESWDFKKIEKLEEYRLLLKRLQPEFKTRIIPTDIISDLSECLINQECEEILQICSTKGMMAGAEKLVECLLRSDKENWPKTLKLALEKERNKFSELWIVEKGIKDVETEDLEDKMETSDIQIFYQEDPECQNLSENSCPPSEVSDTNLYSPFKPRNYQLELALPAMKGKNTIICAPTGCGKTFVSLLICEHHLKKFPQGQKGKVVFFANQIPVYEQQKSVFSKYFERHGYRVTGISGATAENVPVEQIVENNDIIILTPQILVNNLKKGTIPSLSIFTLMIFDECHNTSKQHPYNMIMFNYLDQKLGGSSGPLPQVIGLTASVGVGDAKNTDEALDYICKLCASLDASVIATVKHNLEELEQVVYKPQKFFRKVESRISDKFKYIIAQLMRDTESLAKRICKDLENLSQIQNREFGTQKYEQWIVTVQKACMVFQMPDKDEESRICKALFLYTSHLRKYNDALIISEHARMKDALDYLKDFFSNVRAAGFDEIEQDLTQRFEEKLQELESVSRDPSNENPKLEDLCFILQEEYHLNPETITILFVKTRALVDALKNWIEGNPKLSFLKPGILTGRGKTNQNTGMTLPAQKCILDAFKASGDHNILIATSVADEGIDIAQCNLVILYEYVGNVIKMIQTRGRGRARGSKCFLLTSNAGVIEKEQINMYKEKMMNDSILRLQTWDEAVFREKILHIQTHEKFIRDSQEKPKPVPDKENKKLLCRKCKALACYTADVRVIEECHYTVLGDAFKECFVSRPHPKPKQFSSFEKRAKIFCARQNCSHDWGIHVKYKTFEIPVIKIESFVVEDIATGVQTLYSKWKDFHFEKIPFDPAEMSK
In words: IFN-β luciferase reporter assay in HEK293T cells, RIG-I driven (counter-screen and validation).

Consider `CCc1ccc(NC(=O)Nc2c[nH]c3ccccc23)cc1` [F2740-0151, 1-(4-ethylphenyl)-3-(1H-indol-3-yl)urea], for which the “TBK1-mediated type I IFN induction” value in experiment [1] was “failed to suppress”. In addition, in experiment [2] (0.31-2.5µM, 16 h (Figure 2)), the “RIG-I-mediated type I IFN induction” value was “failed to suppress”. Moreover, the “RIG-I driven activation of the IFN-β reporter” value in experiment [2] (counter-screen of hits from the primary screen) is on record as “but not RIG-I-dependent type I IFN induction”.
